Measured values published in the NIST ThermoML archive (doi:10.1021/je0498053).

What was measured:
[1] = xn = mol fraction of the nth substance listed; details: 101.3 kPa, Liquid
[2] = 101.3 kPa, Liquid

CCCCC(C)O (centres undefined) [2-hexanol] + CCCCN
[1]
Details | mass density, 303.15 K [kg/m3] | mass density, 313.15 K [kg/m3] | mass density, 323.15 K [kg/m3] | viscosity, 303.15 K [mPa·s] | viscosity, 313.15 K [mPa·s] | viscosity, 323.15 K [mPa·s]
x2 = 0 | 806.4 | 798.4 | 790.1 | 3.23 | 2.29 | 1.64
x2 = 0.1 | 802 | 794.2 | 786 | 2.67 | 1.97 | 1.45
x2 = 0.2 | 796.7 | 788.9 | 780.6 | 2.19 | 1.68 | 1.26
x2 = 0.3 | 791.5 | 783.7 | 775.3 | 1.78 | 1.4 | 1.1
x2 = 0.4 | 785 | 776.9 | 768.5 | 1.47 | 1.17 | 0.93
x2 = 0.5 | 777.7 | 769.4 | 760.8 | 1.2 | 0.98 | 0.79
x2 = 0.6 | 769.8 | 761.4 | 751.1 | 0.97 | 0.81 | 0.67
x2 = 0.6999 | 760.7 | 752.1 | 741.6 | 0.79 | 0.68 | 0.57
x2 = 0.8 | 751.3 | 742.7 | 732.4 | 0.65 | 0.56 | 0.47
x2 = 0.9 | 742.1 | 732.9 | 722.9 | 0.53 | 0.47 | 0.4

CCCC(C)(C)O [2-methyl-2-pentanol] + CCCCN
[1]
Details | mass density, 303.15 K [kg/m3] | mass density, 313.15 K [kg/m3] | mass density, 323.15 K [kg/m3] | viscosity, 303.15 K [mPa·s] | viscosity, 313.15 K [mPa·s] | viscosity, 323.15 K [mPa·s]
x2 = 0 | 810.8 | 802.4 | 793.5 | 2.93 | 2.06 | 1.46
x2 = 0.1 | 806.7 | 798.2 | 789.2 | 2.62 | 1.88 | 1.34
x2 = 0.2 | 801.5 | 793.1 | 784 | 2.25 | 1.66 | 1.2
x2 = 0.3 | 795.7 | 787.2 | 778.2 | 1.86 | 1.41 | 1.04
x2 = 0.4 | 788.8 | 780.2 | 771.2 | 1.55 | 1.2 | 0.92
x2 = 0.4999 | 781.4 | 772.8 | 763.7 | 1.26 | 1 | 0.79
x2 = 0.5999 | 772.9 | 764.2 | 754.7 | 1.01 | 0.83 | 0.67
x2 = 0.7 | 763.8 | 755 | 745.1 | 0.82 | 0.69 | 0.57
x2 = 0.8 | 753.4 | 744.3 | 734.3 | 0.66 | 0.57 | 0.48
x2 = 0.9 | 742.4 | 733.3 | 723.6 | 0.54 | 0.47 | 0.41

CCCC(C)CO (centres undefined) [2-methyl-1-pentanol]
[2]
Details | mass density [kg/m3] | viscosity [mPa·s]
303.15 K | 816.8 | 4.55
313.15 K | 809.5 | 3.18
323.15 K | 801.5 | 2.25

CCCCN [1-butanamine] + CCCC(C)(C)O
[1], x1 = 1
Details | mass density [kg/m3] | viscosity [mPa·s]
303.15 K | 732.1 | 0.46
313.15 K | 722.9 | 0.4
323.15 K | 712.7 | 0.36

CC(C)CC(C)O (centres undefined) [4-methyl-2-pentanol] + CCCCN
[1]
Details | mass density, 303.15 K [kg/m3] | mass density, 313.15 K [kg/m3] | mass density, 323.15 K [kg/m3] | viscosity, 303.15 K [mPa·s] | viscosity, 313.15 K [mPa·s] | viscosity, 323.15 K [mPa·s]
x2 = 0 | 799.3 | 790.7 | 782 | 3.23 | 2.24 | 1.55
x2 = 0.1 | 794.8 | 787 | 778.6 | 2.61 | 1.91 | 1.4
x2 = 0.2 | 790.7 | 782.9 | 774.5 | 2.06 | 1.57 | 1.21
x2 = 0.3 | 785.2 | 777.3 | 768.9 | 1.66 | 1.31 | 1.02
x2 = 0.3999 | 779.6 | 771.5 | 763 | 1.35 | 1.09 | 0.87
x2 = 0.5 | 772.8 | 764.6 | 755.9 | 1.09 | 0.91 | 0.75
x2 = 0.6 | 766 | 757.5 | 748.6 | 0.92 | 0.77 | 0.64
x2 = 0.6999 | 758 | 749.4 | 740.3 | 0.77 | 0.65 | 0.54
x2 = 0.7999 | 749.7 | 740.9 | 731.1 | 0.64 | 0.55 | 0.47
x2 = 0.9 | 740.8 | 731.7 | 721.7 | 0.56 | 0.48 | 0.41

CCCCN [1-butanamine] + CCCC(O)CC
[1], x1 = 1
Details | mass density [kg/m3] | viscosity [mPa·s]
303.15 K | 732.1 | 0.46
313.15 K | 722.9 | 0.4
323.15 K | 712.7 | 0.36

CCCC(O)CC (centres undefined) [3-hexanol] + CCCCN
[1]
Details | mass density, 303.15 K [kg/m3] | mass density, 313.15 K [kg/m3] | mass density, 323.15 K [kg/m3] | viscosity, 303.15 K [mPa·s] | viscosity, 313.15 K [mPa·s] | viscosity, 323.15 K [mPa·s]
x2 = 0 | 810.2 | 801.7 | 792.8 | 3.52 | 2.34 | 1.58
x2 = 0.1 | 806.4 | 798.4 | 789.8 | 2.85 | 2.2 | 1.44
x2 = 0.2 | 801.4 | 793.5 | 785 | 2.26 | 1.79 | 1.24
x2 = 0.3 | 795.6 | 787.5 | 776.9 | 1.78 | 1.39 | 1.07
x2 = 0.3999 | 788.6 | 780.5 | 770 | 1.41 | 1.09 | 0.91
x2 = 0.5 | 780.4 | 772 | 763.2 | 1.13 | 0.89 | 0.76
x2 = 0.5999 | 772 | 763.5 | 754.5 | 0.92 | 0.78 | 0.65
x2 = 0.7 | 762.9 | 754.1 | 745.2 | 0.76 | 0.68 | 0.55
x2 = 0.7999 | 753 | 743.6 | 734.4 | 0.65 | 0.58 | 0.48
x2 = 0.9 | 742 | 732.7 | 723.2 | 0.54 | 0.46 | 0.4

CCCCN [1-butanamine] + CCCCC(C)O
[1], x1 = 1
Details | mass density [kg/m3] | viscosity [mPa·s]
303.15 K | 732.1 | 0.46
313.15 K | 722.9 | 0.4
323.15 K | 712.7 | 0.36

CCCC(C)(C)O [2-methyl-2-pentanol]
[2]
Details | mass density [kg/m3] | viscosity [mPa·s]
303.15 K | 810.8 | 2.93
313.15 K | 802.4 | 2.06
323.15 K | 793.5 | 1.46

CCCCN [1-butanamine] + CC(C)CC(C)O
[1], x1 = 1
Details | mass density [kg/m3] | viscosity [mPa·s]
303.15 K | 732.1 | 0.46
313.15 K | 722.9 | 0.4
323.15 K | 712.7 | 0.36

CCCCN [1-butanamine] + CCCC(C)CO
[1], x1 = 1
Details | mass density [kg/m3] | viscosity [mPa·s]
303.15 K | 732.1 | 0.46
313.15 K | 722.9 | 0.4
323.15 K | 712.7 | 0.36

CCCCC(C)O (centres undefined) [2-hexanol]
[2]
Details | mass density [kg/m3] | viscosity [mPa·s]
303.15 K | 806.4 | 3.23
313.15 K | 798.4 | 2.29
323.15 K | 790.1 | 1.64

CC(C)CC(C)O (centres undefined) [4-methyl-2-pentanol]
[2]
Details | mass density [kg/m3] | viscosity [mPa·s]
303.15 K | 799.3 | 3.23
313.15 K | 790.7 | 2.24
323.15 K | 782 | 1.55

CCCC(C)CO (centres undefined) [2-methyl-1-pentanol] + CCCCN
[1]
Details | mass density, 303.15 K [kg/m3] | mass density, 313.15 K [kg/m3] | mass density, 323.15 K [kg/m3] | viscosity, 303.15 K [mPa·s] | viscosity, 313.15 K [mPa·s] | viscosity, 323.15 K [mPa·s]
x2 = 0 | 816.8 | 809.5 | 801.5 | 4.55 | 3.18 | 2.25
x2 = 0.1 | 810.3 | 803 | 795.3 | 3.38 | 2.51 | 1.85
x2 = 0.2 | 804.8 | 797.4 | 789.6 | 2.67 | 2.06 | 1.57
x2 = 0.2999 | 798.2 | 790.6 | 782.6 | 2.1 | 1.65 | 1.32
x2 = 0.4 | 791 | 783.2 | 775 | 1.67 | 1.35 | 1.08
x2 = 0.5 | 783.6 | 775.7 | 767.2 | 1.37 | 1.11 | 0.91
x2 = 0.6 | 774.5 | 766.3 | 757.7 | 1.1 | 0.9 | 0.75
x2 = 0.6999 | 764.7 | 756.2 | 747.4 | 0.89 | 0.72 | 0.6
x2 = 0.8 | 753.9 | 745.2 | 736.1 | 0.69 | 0.59 | 0.5
x2 = 0.8999 | 742.9 | 734.5 | 724.3 | 0.54 | 0.48 | 0.42
